# According to patent publication EP4790048A1, “S1PR4 REGULATOR COMPOUND FOR AUTOIMMUNE DISEASE TREATMENT AND APPLICATION THEREOF” (Shengyuan Zetong (Shanghai) Pharmaceutical Co., Ltd, priority 2023, dated 2025):
# Biological target: T1, hS1P4 (Homo sapiens, UniProt O95977)
# T1 construct: expressed in transfected cells; host or cells: CHO
# T1 sequence (O95977 1-384): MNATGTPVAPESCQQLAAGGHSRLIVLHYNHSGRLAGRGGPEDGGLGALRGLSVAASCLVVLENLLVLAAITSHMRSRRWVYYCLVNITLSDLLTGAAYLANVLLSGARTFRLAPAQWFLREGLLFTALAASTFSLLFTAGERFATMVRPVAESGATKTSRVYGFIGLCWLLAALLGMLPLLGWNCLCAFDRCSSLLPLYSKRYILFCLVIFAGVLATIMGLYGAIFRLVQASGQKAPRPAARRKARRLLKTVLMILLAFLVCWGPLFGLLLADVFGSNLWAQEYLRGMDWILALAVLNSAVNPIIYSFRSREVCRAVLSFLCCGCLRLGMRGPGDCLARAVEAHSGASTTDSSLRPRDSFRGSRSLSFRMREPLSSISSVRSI
# Assay: Tango β-arrestin recruitment luciferase assay, Tango-hS1P4-CHO
# Format: cell-based
# Conditions: β-arrestin recruitment; 20 h drug treatment; top 45 µM, 9 serial 5-fold dilutions; positive control 25 µM BAF-312; read-out: Tango-hS1P4-CHO EC50
# Description: (§1) The Tango assay detects ligand-dependent GPCR activity through the interaction between β-arrestin and GPCRs. […] The NTEV fragment and the tetracycline transactivator (tTA), an artificial transcription factor, are fused at the C-terminus of the GPCR, while the CTEV fragment is fused to human β-arrestin 2. To enhance the stability of the interaction between GPCR and β-arrestin, a short sequence from the C-terminus of the human arginine vasopressin receptor 2 (V2 tail) is inserted between the GPCR and NTEV. The V2 tail contains multiple GRK phosphorylation sites, which strengthen β-arrestin binding upon phosphorylation. The CTEV fragment carries the stabile point mutation S219P and is truncated at residue 221 to remove the autoinhibitory C-terminal tail. Meanwhile, β-arrestin 2 is truncated to lack the entire C-terminal tail (residues 383-410 deleted). This truncation confers robust stimulus-dependent receptor desensitization, thereby improving detection sensitivity compared with wild-type β-arrestin 2. The UAS reporter construct consists of upstream activating sequence (UAS) elements, a minimal CMV promoter, and a tTA-dependent luciferase reporter gene. Therefore, constructing Tango cells requires the co-transfection of the above three plasmids into host cells. Upon GPCR activation and β-arrestin recruitment, the TEV enzyme at the β-arrestin terminus cleaves tTA from the GPCR C-terminus. The released tTA initiates tTA-dependent luciferase transcription, and compound activity is ultimately determined by measuring luminescence intensity.
# (§2) • 1) Tango cell line from was digested from the culture dish respectively. After cell counting, the cells were plated at a density of 10,000 cells per well with […] into a white opaque 96-well plate (add 60 µL D'Hanks to the surrounding wells), and incubated overnight (20 h) in a 5% CO2 incubator at 37°C. The cell density will reach approximately 90% the next day. • 2) After 20 h, 30 µL of serially diluted compound solution was added to each well. The control group was supplemented with 30 µL F12K complete medium. Each group had three replicate wells. • 3) Samples were collected after 20 h of drug treatment.
# (§3) (All compounds were tested at a final concentration of 45 µM, with 9 serial dilutions at 5-fold intervals. 1 µM BAF-312 was used as the positive control for S1PR1, and 25 µM BAF-312 was used as the positive control for S1PR4.
row,SMILES,EC50 [µM]
1,"CCc1cc(/C(C)=N/OCc2ccc(-c3cnc(O)cn3)c(C)c2)ccc1CN1CC[C@H](C(=O)O)C1 [Compound 5, (S, E)-1-(2-ethyl-4-(1-(((3-methyl-4-(5-hydroxypyrazin-2-yl)-benzyl)oxy)imino)ethyl)benzyl)pyrrolidine-3-carboxylic acid]",0.00422 ± 0.00119
2,"C/C(=N\OCc1ccc(C2CCCCC2)c(C(F)(F)F)c1)c1ccc(CNCCCC(=O)O)cc1 [Compound 8, (E)-4-((4-((1-((4-cyclohexyl-3-(trifluoromethyl)benzyl)oxy)imino)ethyl)benzyl)amino)butanoic acid]",2.4
3,"C/C(=N\OCc1ccc(C2CCCCC2)c(C(F)(F)F)c1)c1ccc(CN2CC(C(=O)O)C2)c(Br)c1 [Compound 12, (E)-1-(2-bromo-4-(1-((4-cyclohexyl-3-(trifluoromethyl)benzyl)oxy)imino)ethyl)azetidine-3-carboxylic acid]",2.25
4,CCc1cc(/C(C)=N/OCc2cccc(C(F)(F)F)c2)ccc1CN1CC(C(=O)O)C1 [Compound 13],3.24
5,"CCc1cc(/C(C)=N/OCc2ccc(OC(C)C)c(C#N)c2)ccc1CN1CC(C(=O)O)C1 [Compound 16, (E)-1-(4-(1-(((3-cyano-4-isopropoxybenzyl)oxy)imino)ethyl)-2-ethylbenzyl)azetidine-3-carboxylic acid]",3.31
6,COc1cc(/C(C)=N/OCc2ccc(C3CCCCC3)c(C(F)(F)F)c2)ccc1CN1CC(C(=O)O)C1 [Compound 27],1.7
7,"CCc1cc(/C(C)=N/OCc2ccc(-c3ccsc3)c(C)c2)ccc1CN1CC[C@H](C(=O)O)C1 [Compound 41, (S, E)-1-(2-ethyl-4-(1-(((3-methyl-4-(thiophen-3-yl)benzyl)oxy)imino)ethyl)benzyl)pyrrolidine-3-carboxylic acid]",0.00291 ± 1e-05
8,"CCc1cc(/C(C)=N/OCc2ccc(-c3ccc(F)cc3F)c(C)c2)ccc1CN1CC[C@H](C(=O)O)C1 [Compound 47, (S, E)-1-(2-ethyl-4-(1-(((2',4'-difluoro-2-methyl-[1,1'-biphenyl]-4-yl)methoxy)imino)ethyl)benzyl)pyrrolidine-3-carboxylic acid]",0.00467
9,"CCc1cc(/C(C)=N/OCc2ccc(-c3ccc(F)nc3)c(C)c2)ccc1CN1CC[C@H](C(=O)O)C1 [Compound 53, (S, E)-1-(2-ethyl-4-(1-(((4-(6-fluoropyridin-3-yl)-3-methylbenzyl)oxy)imino)ethyl)benzyl)pyrrolidine-3-carboxylic acid]",0.00702 ± 0.00059
10,CCc1cc(/C(C)=N/OCc2ccc(-c3ccsc3)cc2)ccc1CN1CC[C@H](C(=O)O)C1 [Compound 56],0.00505 ± 0.00184
11,CCc1cc(/C(C)=N/OCc2ccc(-c3cnn(C)c3)cc2F)ccc1CN1CC[C@H](C(=O)O)C1 [Compound 58],> 10
12,"CCc1cc(/C(C)=N/OCc2ccc(C3CCCCC3)c(C)c2)ccc1CN1CC[C@H](C(=O)O)C1 [Compound 60, (S, E)-1-(2-ethyl-4-(1-(((4-cyclohexyl-3-methylbenzyl)oxy)imino)ethyl)benzyl)pyrrolidine-3-carboxylic acid]",0.0717
13,CCc1cc(/C(C)=N/OCc2ccc(C3=CCCCC3)c(C)c2)ccc1CN1CC[C@H](C(=O)O)C1 [Compound 61],0.00333 ± 0.0025
14,"CCc1cc(/C(C)=N/OCc2ccc(C3CCCC3)c(C)c2)ccc1CN1CC[C@H](C(=O)O)C1 [Compound 62, (S, E)-1-(2-ethyl-4-(1-(((4-cyclopentyl-3-methylbenzyl)oxy)imino)ethyl)benzyl)pyrrolidine-3-carboxylic acid]",0.00331 ± 0.00024
15,CCc1cc(/C(C)=N/OCc2ccc(C3=CCCC3)c(C)c2)ccc1CN1CC[C@H](C(=O)O)C1 [Compound 63],0.00586 ± 0.00027
16,CCc1cc(/C(C)=N/OCc2ccc(-c3ccccc3F)c(F)c2)ccc1CN1CC[C@H](C(=O)O)C1 [Compound 64],0.00777 ± 0.00102
17,"CCc1cc(/C(C)=N/OCc2ccc(-c3ccc(F)nc3)c(F)c2)ccc1CN1CC[C@H](C(=O)O)C1 [Compound 69, (S, E)-1-(2-ethyl-4-(1-(((3-fluoro-4-(6-fluoropyridin-3-yl)benzyl)oxy)imino)ethyl)benzyl)pyrrolidine-3-carboxylic acid]",0.00828 ± 0.00038
18,"CCc1cc(/C(C)=N/OCc2ccc(-c3cccs3)c(C)c2)ccc1CN1CC[C@H](C(=O)O)C1 [Compound 72, (S, E)-1-(2-ethyl-4-(1-(((3-methyl-4-(thiophen-2-yl)benzyl)oxy)imino)ethyl)benzyl)pyrrolidine-3-carboxylic acid]",0.00151 ± 0.00064
19,"CCc1cc(/C(C)=N/OCc2ccc(-c3ccncn3)c(C)c2)ccc1CN1CC[C@H](C(=O)O)C1 [Compound 76, (S, E)-1-(2-ethyl-4-(1-(((3-methyl-4-(pyrimidin-4-yl)benzyl)oxy)imino)ethyl)benzyl)pyrrolidine-3-carboxylic acid]",0.00439 ± 0.00091
20,"CCc1cc(/C(C)=N/OCc2ccc(-c3ncc(F)cn3)c(C)c2)ccc1CN1CC[C@H](C(=O)O)C1 [Compound 77, (S, E)-1-(2-ethyl-4-(1-(((4-(5-fluoropyrimidin-2-yl)-3-methylbenzyl)oxy)imino)ethyl)benzyl)pyrrolidine-3-carboxylic acid]",0.00593 ± 0.00412
21,"CCc1cc(/C(C)=N/OCc2ccc(-c3cncnc3)c(C)c2)ccc1CN1CC(C(=O)O)C1 [Compound 81, (E)-1-(2-ethyl-4-(1-(((3-methyl-4-(pyrimidin-5-yl)benzyl)oxy)imino)ethyl)benzyl)azetidine-3-carboxylic acid]",0.103 ± 0.0091
22,"CCc1cc(/C(C)=N/OCc2ccc(-c3ccsc3)c(F)c2)ccc1CN1CC[C@H](C(=O)O)C1 [Compound 85, (S, E)-1-(2-ethyl-4-(1-(((3-fluoro-4-(thiophen-3-yl)benzyl)oxy)imino)ethyl)benzyl)pyrrolidine-3-carboxylic acid]",0.00852 ± 0.00021
23,"CCc1cc(/C(C)=N/OCc2ccc(-c3cnc(F)cn3)c(C)c2)ccc1CN1CCC(C(=O)O)CC1 [Compound 90, (E)-1-(2-ethyl-4-(1-(((3-methyl-4-(5-fluoropyrazin-2-yl)-benzyl)oxy)imino)ethyl)benzyl)piperidine-4-carboxylic acid]",> 10
24,"CCc1cc(/C(C)=N/OCc2ccc(-c3cnc(F)cn3)c(C)c2)ccc1CN1CC(C(=O)O)C1 [Compound 91, (E)-1-(2-ethyl-4-(1-(((3-methyl-4-(5-fluoropyrazin-2-yl)-benzyl)oxy)imino)ethyl)benzyl)azetidine-3-carboxylic acid]",> 10

# Biological target: T2, hS1P1 (Homo sapiens, UniProt P21453)
# T2 construct: expressed in transfected cells; host or cells: CHO
# Assay: Tango β-arrestin recruitment luciferase assay, Tango-hS1P1-CHO
# Format: cell-based
# Conditions: β-arrestin recruitment; 20 h drug treatment; top 45 µM, 9 serial 5-fold dilutions; positive control 1 µM BAF-312; read-out: Tango-hS1P1-CHO EC50
# Description: as §1, §2, §3
# T2 sequence (P21453 whole entry): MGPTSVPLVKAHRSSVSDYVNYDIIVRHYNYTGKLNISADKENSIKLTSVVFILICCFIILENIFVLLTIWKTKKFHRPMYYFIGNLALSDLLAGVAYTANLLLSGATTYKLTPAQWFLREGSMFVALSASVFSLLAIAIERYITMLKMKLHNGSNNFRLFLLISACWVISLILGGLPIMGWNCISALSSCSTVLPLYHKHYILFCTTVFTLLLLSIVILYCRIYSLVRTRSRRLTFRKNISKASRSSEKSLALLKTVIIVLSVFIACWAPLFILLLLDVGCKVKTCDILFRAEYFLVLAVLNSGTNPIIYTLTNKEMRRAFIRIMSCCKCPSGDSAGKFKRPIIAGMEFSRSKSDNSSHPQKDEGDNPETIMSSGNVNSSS
row,SMILES,EC50 [µM]
1,CCc1cc(/C(C)=N/OCc2ccc3ccccc3c2)ccc1CN1CC(C(=O)O)C1 [Compound 15],0.807
2,"CCc1cc(/C(C)=N/OCc2ccc(-c3ccccc3)cc2)ccc1CN1CC(C(=O)O)C1 [Compound 20, (E)-1-(4-(1-(([1,1'-biphenyl]-4-ylmethoxy)imino)ethyl)-2-ethylbenzyl)azetidine-3-carboxylic acid]",0.782 ± 0.0249
3,"CCc1cc(/C(C)=N/OCc2ccc3c(c2)CCCC3)ccc1CN1CC(C(=O)O)C1 [Compound 23, (E)-1-(2-ethyl-4-(1-(((5,6,7,8-tetrahydronaphthalen-2-yl)methoxy)imino)ethyl)benzyl)azetidine-3-carboxylic acid]",0.56
4,CCc1cc(/C(C)=N/OCc2ccc(-c3ccccc3)c(C)c2)ccc1CN1CCCC(C(=O)O)C1 (stereo not drawn) [Compound 33],0.454
5,CCc1cc(/C(C)=N/OCc2ccc(-c3cnn(C(C)(C)C)c3)c(C)c2)ccc1CN1CC[C@H](C(=O)O)C1 [Compound 39],> 10
6,CCc1cc(/C(C)=N/OCc2ccc(-c3cnn(C)c3)c(C)c2)ccc1CN1CC[C@H](C(=O)O)C1 [Compound 40],> 10
7,CCc1cc(/C(C)=N/OCc2ccc(-c3cncn3C)c(C)c2)ccc1CN1CC[C@H](C(=O)O)C1 [Compound 44],> 10
8,CCc1cc(/C(C)=N/OCc2ccc(-c3c(C)noc3C)c(C)c2)ccc1CN1CC[C@H](C(=O)O)C1 [Compound 45],> 10
9,CCc1cc(/C(C)=N/OCc2ccc(-c3ccc(F)nc3)cc2F)ccc1CN1CC[C@H](C(=O)O)C1 [Compound 65],> 10
